Data reported in US20020193319A1, “Use of EGF genistein to prevent development of EGF-receptor expressing cancers” (Parker Hughes Institute, priority 1999, published 2002).
Like-named read-outs stand apart in the source and are kept apart here.

How the values were obtained:
MDA-MB-231 cells = experiment: FACS MC540/propidium iodide apoptosis assay; assay type: cell-based, human; details: 24 hours
Procedure: Fluorescence activated cell sorting (FACS) was used to sort MDA-MB-231 cells (breast cancer cells expressing EGF-Rc). The cells were treated with either PBS EFG-Genistein (0.1, 1, and 10 μM) or unconjugated Geninstein (1, 10, and 100 μM) and incubated for 24 hours. The cells were then stained with MC-540 and propidium iodide. Single MC540 fluorescence (S-MC540) indicates the cell is at an early stage of apoptosis. Dual MC540/propidium iodide fluorescence (D-MC540/PI) indicates the cell is at an advanced stage of apoptosis. The total apoptotic fraction (TAF) is calculated as the percentage of MC540 fluorescent cells plus the percentage of MC540/propidium iodide double fluorescent cells.

[1] = test system: human breast cancer (MDA-MB-231) xenografts; assay type: in vivo; details: 100 μg/kg/day intraperitoneally for 10 days, followed 20 days, vs PBS or unconjugated Genistein
Procedure: The tumor diameter was determined daily for 20 days from the start of therapy. Control mice were treated with 0.2 ml of PBS for 10 consecutive days or unconjugated Genistein at a concentration of 500 μg/kg/day for 10 days. P values were determined using Student's t test.

[2] = test system: Neu mediated mammary tumors; experiment: Prevention of spontaneous breast cancer in Neu/erbB2 transgenic mice; assay type: in vivo
Procedure: Neu/erbB2 transgenic mice were chosen because they overexpress the Neu protooncogene in their mammary glands.
As a control, 29 Neu/erbB2 mice were treated with PBS.

Substance	% S-MC540 (Single MC540, early stage of apoptosis) (MDA-MB-231 cells; 0.1 μM) [%]	% TAF (total apoptotic fraction: Single MC540 plus Dual MC540/propidium iodide) (MDA-MB-231 cells; 0.1 μM) [%]	% D-MC540/PI (Dual MC540/propidium iodide, advanced stage of apoptosis) (MDA-MB-231 cells; 1 μM) [%]	% S-MC540 (Single MC540, early stage of apoptosis) (MDA-MB-231 cells; 1 μM) [%]	% TAF (total apoptotic fraction: Single MC540 plus Dual MC540/propidium iodide) (MDA-MB-231 cells; 1 μM) [%]	% D-MC540/PI (Dual MC540/propidium iodide, advanced stage of apoptosis) (MDA-MB-231 cells; 10 μM) [%]	% S-MC540 (Single MC540, early stage of apoptosis) (MDA-MB-231 cells; 10 μM) [%]	% TAF (total apoptotic fraction: Single MC540 plus Dual MC540/propidium iodide) (MDA-MB-231 cells; 10 μM) [%]	tumor progression (tumor diameter) ([1]; 0.5 cm xenograft, FIG. 3A)	tumor progression (tumor diameter) ([1]; 1.0 cm xenograft, FIG. 3B)	side effects ([2]; 100 μg 1× per week for 10 weeks)	mice that developed breast cancer ([2]; 100 μg subcutaneously 1× per week for 10 weeks (5 mg/kg), from 4 months old, n=10) [%]	% D-MC540/PI (Dual MC540/propidium iodide, advanced stage of apoptosis) (MDA-MB-231 cells; 100 μM) [%]	% S-MC540 (Single MC540, early stage of apoptosis) (MDA-MB-231 cells; 100 μM) [%]	% TAF (total apoptotic fraction: Single MC540 plus Dual MC540/propidium iodide) (MDA-MB-231 cells; 100 μM) [%]
EGF-Genistein: Genistein conjugated to epidermal growth factor (EGF), prepared as in Example 1 of U.S. Pat. No. 5,911,995	78.8	98.7	36.6	61.0	97.6	56.7	42.2	98.9	reversed	slowed	not associated with any side effects	40	–	–	–
EGF: Human epidermal growth factor, six kilodalton 53 amino acid single-chain polypeptide	–	–	0.8	5.5	6.3	1.2	9.5	10.7	–	–	–	–	2.0	13.5	15.5
